The values below come from PubChem BioAssay AID1259407 (Chemical Carcinogenesis Research Information System (CCRIS), 2018).

Active and inactive are the calls of the source. No rule for the calls is given here.

This data set concerns CCRIS mutagenicity, Ames/micronucleus/aberration tests. The data set is described as follows: CCRIS mutagenicity studies. The conditions noted are these: Test System: AMES SALMONELLA TYPHIMURIUM
The mark [1] stands for this setting: Strain/Indicator: TA100, Metabolic Activation: RAT, LIVER, S-9, PCB, Method: PREINCUBATION
[2] abbreviates: Strain/Indicator: TA100, Metabolic Activation: NONE, Method: STANDARD PLATE.

On to `Nc1nc(-c2ccc([N+](=O)[O-])cc2)nc2c1ncn2[C@H]1C[C@H](O)[C@@H](CO)O1`, for which the mutagenic call is, setting by setting: (Strain/Indicator: TA98(1,8-DNP), Metabolic Activation: NONE, Method: PREINCUBATION) “active; positive”; (Strain/Indicator: TA98(1,8-DNP), Metabolic Activation: RAT, LIVER, S-9, PCB, Method: PREINCUBATION) “active; positive”; (Strain/Indicator: TA98(NR), Metabolic Activation: NONE, Method: PREINCUBATION) “active; positive”; (Strain/Indicator: TA98(NR), Metabolic Activation: RAT, LIVER, S-9, PCB, Method: PREINCUBATION) “active; positive”; (Strain/Indicator: TA98, Metabolic Activation: NONE, Method: PREINCUBATION) “active; positive”; (Strain/Indicator: TA98, Metabolic Activation: RAT, LIVER, S-9, PCB, Method: PREINCUBATION) “active; positive”. The mutagenic call is, setting by setting: (Strain/Indicator: TA100(1,8-DNP), Metabolic Activation: NONE, Method: PREINCUBATION) “active; positive”; (Strain/Indicator: TA100(NR), Metabolic Activation: NONE, Method: PREINCUBATION) “active; positive”; (Strain/Indicator: TA100(NR), Metabolic Activation: RAT, LIVER, S-9, PCB, Method: PREINCUBATION) “active; positive”; (Strain/Indicator: TA100, Metabolic Activation: NONE, Method: PREINCUBATION) “active; positive”; under setting [1], “active; positive”; (Strain/Indicator: YG1020, Metabolic Activation: NONE, Method: PREINCUBATION) “active; positive”. Further, the mutagenic call runs as follows: (Strain/Indicator: YG1020, Metabolic Activation: RAT, LIVER, S-9, PCB, Method: PREINCUBATION) “active; positive”; (Strain/Indicator: YG1021, Metabolic Activation: NONE, Method: PREINCUBATION) “active; positive”; (Strain/Indicator: YG1021, Metabolic Activation: RAT, LIVER, S-9, PCB, Method: PREINCUBATION) “active; positive”; (Strain/Indicator: YG1024, Metabolic Activation: NONE, Method: PREINCUBATION) “active; positive”; (Strain/Indicator: YG1024, Metabolic Activation: RAT, LIVER, S-9, PCB, Method: PREINCUBATION) “active; positive”; (Strain/Indicator: YG1025, Metabolic Activation: NONE, Method: PREINCUBATION) “active; positive”. The mutagenic call (Strain/Indicator: YG1025, Metabolic Activation: RAT, LIVER, S-9, PCB, Method: PREINCUBATION) was “active; positive”; the mutagenic call (Strain/Indicator: YG1026, Metabolic Activation: NONE, Method: PREINCUBATION) was “active; positive”; the mutagenic call (Strain/Indicator: YG1026, Metabolic Activation: RAT, LIVER, S-9, PCB, Method: PREINCUBATION) was “active; positive”; the mutagenic call (Strain/Indicator: YG1029, Metabolic Activation: NONE, Method: PREINCUBATION) was “active; positive”; the mutagenic call (Strain/Indicator: YG1029, Metabolic Activation: RAT, LIVER, S-9, PCB, Method: PREINCUBATION) is “active; positive”.
In the case of `[N-]=[N+]=NCCC(c1ccccc1)c1ccccc1`, the mutagenic call under setting [1] was “active; positive”.
Consider `CNc1snc2ccccc12`, for which the mutagenic call is “inactive; negative” (Strain/Indicator: TA98, Metabolic Activation: NONE, Method: STANDARD PLATE); “inactive; negative” (Strain/Indicator: TA98, Metabolic Activation: S-9, Method: STANDARD PLATE); “inactive; negative” under setting [2]; “inactive; negative” (Strain/Indicator: TA100, Metabolic Activation: S-9, Method: STANDARD PLATE); “inactive; negative” (Strain/Indicator: TA1535, Metabolic Activation: NONE, Method: STANDARD PLATE); “inactive; negative” (Strain/Indicator: TA1535, Metabolic Activation: S-9, Method: STANDARD PLATE). In addition, the mutagenic call is “inactive; negative” (Strain/Indicator: TA1537, Metabolic Activation: NONE, Method: STANDARD PLATE) and “inactive; negative” (Strain/Indicator: TA1537, Metabolic Activation: S-9, Method: STANDARD PLATE).
`COC(=O)C1CSC2C(Cl)=C(Cl)C(=O)N12` (stereo not drawn): under setting [2], the mutagenic call was “active; positive”.
